For orientation: IC50 means the concentration needed to halve the response being measured.

Each structure is given as a SMILES string.

The first experiment has as its target T1, Glycogen phosphorylase, muscle form (Oryctolagus cuniculus, UniProt P00489).
T1 sequence (P00489 whole entry): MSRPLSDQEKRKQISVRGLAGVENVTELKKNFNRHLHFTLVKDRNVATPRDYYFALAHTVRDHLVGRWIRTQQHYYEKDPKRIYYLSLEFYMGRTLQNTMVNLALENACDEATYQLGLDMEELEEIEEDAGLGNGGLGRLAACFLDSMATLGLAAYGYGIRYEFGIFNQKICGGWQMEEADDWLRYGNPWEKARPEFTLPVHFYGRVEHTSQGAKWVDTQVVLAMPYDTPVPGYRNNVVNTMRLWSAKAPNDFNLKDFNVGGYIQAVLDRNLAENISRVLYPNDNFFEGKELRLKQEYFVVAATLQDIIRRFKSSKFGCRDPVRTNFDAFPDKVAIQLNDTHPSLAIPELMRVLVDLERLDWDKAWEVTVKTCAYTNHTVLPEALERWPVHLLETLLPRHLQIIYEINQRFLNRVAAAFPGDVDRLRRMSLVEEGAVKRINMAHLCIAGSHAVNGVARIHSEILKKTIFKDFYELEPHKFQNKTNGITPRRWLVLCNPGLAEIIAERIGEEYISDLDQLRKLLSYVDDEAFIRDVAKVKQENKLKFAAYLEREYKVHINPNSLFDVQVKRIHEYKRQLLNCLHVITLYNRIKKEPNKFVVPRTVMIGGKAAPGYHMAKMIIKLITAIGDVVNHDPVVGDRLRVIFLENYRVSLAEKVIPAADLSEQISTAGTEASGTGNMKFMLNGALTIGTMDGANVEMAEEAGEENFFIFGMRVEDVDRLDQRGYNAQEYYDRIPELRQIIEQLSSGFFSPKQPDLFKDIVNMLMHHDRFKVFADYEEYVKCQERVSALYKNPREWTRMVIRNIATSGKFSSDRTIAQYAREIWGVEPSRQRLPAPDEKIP
Put plainly: Inhibition of rabbit muscle glycogen phosphorylase A assessed as release of phosphate from glucose-1-phosphate after 25 mins.
Details: not given; call rule not given here
In the case of `C=C(C)[C@@H]1CC[C@]2(C(=O)NCCCC)CC[C@]3(C)[C@H](CC[C@@H]4[C@@]5(C)CC[C@H](OC(=O)C(=O)NCCCC)[C@@](C)(COC(=O)C(=O)NCCCC)[C@@H]5CC[C@]43C)[C@@H]12`, the IC50 entry was “Not Active”.

Staying with this experiment, now noted: read-out: IC50.
On to `C=C(C)[C@@H]1CC[C@]2(COC(=O)C(=O)OC)CC[C@]3(C)[C@H](CC[C@@H]4[C@@]5(C)CC[C@H](OC(=O)C(=O)OC)[C@@](C)(COC(=O)C(=O)OC)[C@@H]5CC[C@]43C)[C@@H]12`, for which the IC50 stood at 30.1 µM.

As for `C=C(C)[C@@H]1CC[C@]2(COC(=O)C(=O)NCCCC)CC[C@]3(C)[C@H](CC[C@@H]4[C@@]5(C)CC[C@H](OC(=O)C(=O)NCCCC)[C@@](C)(COC(=O)C(=O)NCCCC)[C@@H]5CC[C@]43C)[C@@H]12`, the IC50 stood at 34.7 µM.

On to `C=C(C)[C@@H]1CC[C@]2(C(=O)NCCCCCCN)CC[C@]3(C)[C@H](CC[C@@H]4[C@@]5(C)CC[C@H](O)[C@@](C)(CO)[C@@H]5CC[C@]43C)[C@@H]12`, for which the IC50 was determined as 10.2 µM.

`C=C(C)[C@@H]1CC[C@]2(C(=O)NCCCCCCN)CC[C@]3(C)[C@H](CC[C@@H]4[C@@]5(C)CC[C@H](OC(C)=O)[C@@](C)(COC(C)=O)[C@@H]5CC[C@]43C)[C@@H]12`: the IC50 was 3.5 µM.

On to `C=C(C)[C@@H]1CC[C@]2(C(=O)NCCCN)CC[C@]3(C)[C@H](CC[C@@H]4[C@@]5(C)CC[C@H](OC(C)=O)[C@@](C)(COC(C)=O)[C@@H]5CC[C@]43C)[C@@H]12`, for which the IC50 was determined as 15.2 µM.

In the case of `C=C(C)[C@@H]1CC[C@]2(C(=O)OCCCCCC)CC[C@]3(C)[C@H](CC[C@@H]4[C@@]5(C)CC[C@H](O)[C@@](C)(CO)[C@@H]5CC[C@]43C)[C@@H]12`, the half-inhibitory concentration (IC50) was 69.1 µM.

For the compound `C=C(C)[C@@H]1CC[C@]2(C(=O)NCC(=O)N[C@@H](Cc3ccccc3)C(=O)O)CC[C@]3(C)[C@H](CC[C@@H]4[C@@]5(C)CC[C@H](O)[C@@](C)(CO)[C@@H]5CC[C@]43C)[C@@H]12`, the IC50 came out at 129 µM.

Turning to `C=C(C)[C@@H]1CC[C@]2(C(=O)NCC(=O)OC)CC[C@]3(C)[C@H](CC[C@@H]4[C@@]5(C)CC[C@H](OC(C)=O)[C@@](C)(COC(C)=O)[C@@H]5CC[C@]43C)[C@@H]12`, the IC50 was found to be 103 µM.

Consider `C=C(C)[C@@H]1CC[C@]2(C(=O)OCC#CCOC(=O)CCC(=O)O)CC[C@]3(C)[C@H](CC[C@@H]4[C@@]5(C)CC[C@H](OC(C)=O)[C@@](C)(COC(C)=O)[C@@H]5CC[C@]43C)[C@@H]12`, for which the IC50 is 94.5 µM.

Turning to `C=C(C)[C@@H]1CC[C@]2(C(=O)NCC(=O)N[C@@H](Cc3ccccc3)C(=O)OC)CC[C@]3(C)[C@H](CC[C@@H]4[C@@]5(C)CC[C@H](O)[C@@](C)(CO)[C@@H]5CC[C@]43C)[C@@H]12`, the IC50 came out at 40.6 µM.

Take `C=C(C)[C@@H]1CC[C@]2(C(=O)OCC#CCO)CC[C@]3(C)[C@H](CC[C@@H]4[C@@]5(C)CC[C@H](O)[C@@](C)(CO)[C@@H]5CC[C@]43C)[C@@H]12`: the IC50 amounted to 194 µM.

As for `C=C(C)[C@@H]1CC[C@]2(C(=O)NCCCN(CC)CC)CC[C@]3(C)[C@H](CC[C@@H]4[C@@]5(C)CC[C@H](OC(C)=O)[C@@](C)(COC(C)=O)[C@@H]5CC[C@]43C)[C@@H]12`, the IC50 stood at 72.8 µM.

Take `C=C(C)[C@@H]1CC[C@]2(C(=O)NCC(=O)O)CC[C@]3(C)[C@H](CC[C@@H]4[C@@]5(C)CC[C@H](O)[C@@](C)(CO)[C@@H]5CC[C@]43C)[C@@H]12`: the IC50 amounted to 67.7 µM.

Take `C=C(C)[C@@H]1CC[C@]2(COC(=O)CCC(=O)O)CC[C@]3(C)[C@H](CC[C@@H]4[C@@]5(C)CC[C@H](OC(=O)CCC(=O)O)[C@@](C)(COC(=O)CCC(=O)O)[C@@H]5CC[C@]43C)[C@@H]12`: the IC50 came out at 97.8 µM.

Take `C=C(C)[C@@H]1CC[C@]2(C(=O)O)CC[C@]3(C)[C@H](CC[C@@H]4[C@@]5(C)CC[C@H](O)[C@@](C)(CO)[C@@H]5CC[C@]43C)[C@@H]12`: the IC50 was found to be 103 µM.

Take `C=C(C)[C@@H]1CC[C@]2(C(=O)NCCCCCCNC(C)=O)CC[C@]3(C)[C@H](CC[C@@H]4[C@@]5(C)CC[C@H](OC(C)=O)[C@@](C)(COC(C)=O)[C@@H]5CC[C@]43C)[C@@H]12`: the IC50 is 34.1 µM.

Regarding `C=C(C)[C@@H]1CC[C@]2(COC(=O)C(=O)NC(C)C)CC[C@]3(C)[C@H](CC[C@@H]4[C@@]5(C)CC[C@H](OC(=O)C(=O)NC(C)C)[C@@](C)(COC(=O)C(=O)NC(C)C)[C@@H]5CC[C@]43C)[C@@H]12`, the half-maximal inhibitory concentration (IC50) is 35.9 µM.

For `C=C(C)[C@@H]1CC[C@]2(C(=O)NCCCCCCN(CC)CC)CC[C@]3(C)[C@H](CC[C@@H]4[C@@]5(C)CC[C@H](OC(C)=O)[C@@](C)(COC(C)=O)[C@@H]5CC[C@]43C)[C@@H]12`, the IC50 came to 55.6 µM.

As for `C=C(C)[C@@H]1CC[C@]2(C(=O)NCCCCCCNCC)CC[C@]3(C)[C@H](CC[C@@H]4[C@@]5(C)CC[C@H](OC(C)=O)[C@@](C)(COC(C)=O)[C@@H]5CC[C@]43C)[C@@H]12`, the half-maximal inhibitory concentration (IC50) was determined as 29.5 µM.

On to `C=C(C)[C@@H]1CC[C@]2(C(=O)NCCCN)CC[C@]3(C)[C@H](CC[C@@H]4[C@@]5(C)CC[C@H](O)[C@@](C)(CO)[C@@H]5CC[C@]43C)[C@@H]12`, for which the IC50 was 23.8 µM.

Take `C=C(C)[C@@H]1CC[C@]2(C(=O)OCCN(CCCCCCNC(C)=O)C(C)=O)CC[C@]3(C)[C@H](CC[C@@H]4[C@@]5(C)CC[C@H](OC(C)=O)[C@@](C)(COC(C)=O)[C@@H]5CC[C@]43C)[C@@H]12`: the IC50 came to 96.6 µM.

As to `C=C(C)[C@@H]1CC[C@]2(C(=O)OCCBr)CC[C@]3(C)[C@H](CC[C@@H]4[C@@]5(C)CC[C@H](O)[C@@](C)(CO)[C@@H]5CC[C@]43C)[C@@H]12`, the IC50 was found to be 289 µM.

As for `C=C(C)[C@@H]1CC[C@]2(C(=O)OCCCCCCOC(=O)c3ccccc3C(=O)O)CC[C@]3(C)[C@H](CC[C@@H]4[C@@]5(C)CC[C@H](OC(C)=O)[C@@](C)(COC(C)=O)[C@@H]5CC[C@]43C)[C@@H]12`, the IC50 was determined as 69.2 µM.

In the case of `C=C(C)[C@@H]1CC[C@]2(C(=O)OC3CCCCC3)CC[C@]3(C)[C@H](CC[C@@H]4[C@@]5(C)CC[C@H](O)[C@@](C)(CO)[C@@H]5CC[C@]43C)[C@@H]12`, the IC50 amounted to 50.4 µM.

With `C=C(C)[C@@H]1CC[C@]2(C(=O)NCCCCCCNC(=O)CCC(=O)O)CC[C@]3(C)[C@H](CC[C@@H]4[C@@]5(C)CC[C@H](OC(C)=O)[C@@](C)(COC(C)=O)[C@@H]5CC[C@]43C)[C@@H]12`, the IC50 is 194 µM.

Turning to `C=C(C)[C@@H]1CC[C@]2(COC(C)=O)CC[C@]3(C)[C@H](CC[C@@H]4[C@@]5(C)CC[C@H](OC(C)=O)[C@@](C)(COC(C)=O)[C@@H]5CC[C@]43C)[C@@H]12`, the IC50 worked out at 143 µM.

On to `C=C(C)[C@@H]1CC[C@]2(COC(=O)C(=O)OCC#CCO)CC[C@]3(C)[C@@H](CC[C@@H]4[C@@]5(C)CC[C@H](OC(=O)C(=O)OCC#CCO)[C@@](C)(COC(=O)C(=O)OCC#CCO)[C@@H]5CC[C@]43C)C12` (some centres undefined), for which the IC50 stood at 19.1 µM.

Consider `C=C(C)[C@@H]1CC[C@]2(C(=O)NCCCCCCNC(=O)/C=C/C(=O)O)CC[C@]3(C)[C@H](CC[C@@H]4[C@@]5(C)CC[C@H](OC(C)=O)[C@@](C)(COC(C)=O)[C@@H]5CC[C@]43C)[C@@H]12`, for which the IC50 worked out at 54.8 µM.

These data come from ChEMBL document CHEMBL1156737, “Terpenoids. III: Synthesis and biological evaluation of 23-hydroxybetulinic acid derivatives as novel inhibitors of glycogen phosphorylase” (Bioorg Med Chem Lett, 2009).
